US10479780B2, “Aminopyrazole derivatives” (Chugai Seiyaku Kabushiki Kaisha, priority 2015, dated 2019)
Where two headings read alike, the source gives them in different places.

Key:
Format in all cases: biochemical
human Lck enzyme = target: T1, human Lck enzyme (Homo sapiens, UniProt P06239); experiment: Lck enzyme inhibitory activity (time-resolved fluorometry, biotinylated peptide phosphorylation); conditions: read-out: LCK_IC50
T1 construct: purchased Carna Biosciences, Inc. 08-170
Outline: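 Readout pairs a europium cryptate-labelled anti-phosphotyrosine antibody with XL665-streptavidin, measured by time-resolved fluorescence. IC50 derived from percent inhibition against untreated controls.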

human Yes1 enzyme = target: T2, human Yes1 enzyme (Homo sapiens, UniProt P07947); experiment: Yes1 enzyme inhibitory activity (time-resolved fluorometry, biotinylated peptide phosphorylation); conditions: read-out: YES_IC50
T2 construct: made in house
T2 sequence (P07947 whole entry): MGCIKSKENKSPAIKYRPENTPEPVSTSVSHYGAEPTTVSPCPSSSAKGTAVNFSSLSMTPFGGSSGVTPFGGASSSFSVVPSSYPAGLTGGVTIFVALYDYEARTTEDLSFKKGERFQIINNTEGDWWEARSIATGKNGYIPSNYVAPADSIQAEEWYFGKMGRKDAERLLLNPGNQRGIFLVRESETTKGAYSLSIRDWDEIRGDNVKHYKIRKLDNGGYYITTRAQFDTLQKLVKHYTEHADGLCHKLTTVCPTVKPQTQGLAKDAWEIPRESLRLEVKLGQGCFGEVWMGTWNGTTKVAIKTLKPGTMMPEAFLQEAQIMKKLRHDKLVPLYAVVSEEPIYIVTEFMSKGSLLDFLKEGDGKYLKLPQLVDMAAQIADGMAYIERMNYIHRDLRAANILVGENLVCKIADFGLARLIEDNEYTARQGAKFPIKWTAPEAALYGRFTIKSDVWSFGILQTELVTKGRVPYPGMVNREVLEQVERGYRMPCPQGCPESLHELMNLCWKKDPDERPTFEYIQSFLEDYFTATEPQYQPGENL
Outline: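 Inhibition was expressed against a compound-free control to give IC50, using TR-FRET read-out (Eu-cryptate anti-pTyr antibody, streptavidin-XL665).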

human Src enzyme = target: T3, human Src enzyme (Homo sapiens, UniProt P12931); experiment: Src enzyme inhibitory activity (time-resolved fluorometry, biotinylated peptide phosphorylation); conditions: read-out: SRC_IC50
T3 construct: purchased Carna Biosciences, Inc. 08-173
T3 sequence (P12931 whole entry): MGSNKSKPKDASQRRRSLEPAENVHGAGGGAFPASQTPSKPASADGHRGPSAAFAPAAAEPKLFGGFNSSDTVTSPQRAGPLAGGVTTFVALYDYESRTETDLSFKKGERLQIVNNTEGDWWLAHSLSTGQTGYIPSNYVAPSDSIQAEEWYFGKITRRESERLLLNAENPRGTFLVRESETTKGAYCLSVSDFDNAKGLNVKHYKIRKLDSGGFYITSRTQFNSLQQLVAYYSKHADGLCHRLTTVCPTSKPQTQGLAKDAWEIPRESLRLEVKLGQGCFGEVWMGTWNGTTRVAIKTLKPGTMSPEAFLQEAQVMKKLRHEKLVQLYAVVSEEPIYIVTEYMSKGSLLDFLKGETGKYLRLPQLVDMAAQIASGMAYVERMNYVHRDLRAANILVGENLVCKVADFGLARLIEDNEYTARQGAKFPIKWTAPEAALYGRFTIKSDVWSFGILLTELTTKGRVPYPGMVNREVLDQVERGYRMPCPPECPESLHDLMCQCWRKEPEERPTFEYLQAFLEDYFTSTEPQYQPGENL
Outline: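 Compounds were tested for blocking tyrosine phosphorylation of a biotinylated peptide substrate by recombinant human Src. Phosphorylated product was quantified by time-resolved fluorometry using europium cryptate and XL665 conjugates, and IC50 was calculated against the compound-free control.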

[1] = biotinylated peptide phosphorylation

T1 sequence (P06239 whole entry): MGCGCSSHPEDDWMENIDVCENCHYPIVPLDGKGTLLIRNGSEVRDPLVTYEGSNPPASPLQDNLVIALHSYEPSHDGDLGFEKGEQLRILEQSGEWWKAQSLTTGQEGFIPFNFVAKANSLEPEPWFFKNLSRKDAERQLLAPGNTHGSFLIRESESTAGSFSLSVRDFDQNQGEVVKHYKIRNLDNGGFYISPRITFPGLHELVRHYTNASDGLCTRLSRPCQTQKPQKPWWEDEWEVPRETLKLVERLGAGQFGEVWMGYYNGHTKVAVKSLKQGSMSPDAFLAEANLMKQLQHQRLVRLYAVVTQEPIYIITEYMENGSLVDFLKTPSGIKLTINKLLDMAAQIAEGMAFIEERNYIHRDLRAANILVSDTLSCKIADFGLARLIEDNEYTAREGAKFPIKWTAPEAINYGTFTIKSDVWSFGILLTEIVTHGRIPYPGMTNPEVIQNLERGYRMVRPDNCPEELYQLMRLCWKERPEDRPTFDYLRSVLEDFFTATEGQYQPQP

Row | Structure (SMILES) | IC50 (human Lck enzyme) | IC50 (human Yes1 enzyme) | IC50 (human Src enzyme) | IC50 (human Lck enzyme; [1]) | IC50 (human Yes1 enzyme; [1]) | IC50 (human Src enzyme; [1])
1 | Cc1cc(Oc2c(F)cccc2F)ncc1-n1ncc(C(=O)c2cc3cc(OC4CCN(C(C)C)CC4)c(N4CCOC4=O)cc3[nH]2)c1N [Example 5-1-186, 3-[2-[5-amino-1-[6-(2,6-difluorophenoxy)-4-methylpyridin-3-yl]pyrazole-4-carbonyl]-5-(1-propan-2-ylpiperidin-4-yl)oxy-1H-indol-6-yl]-1,3-oxazolidin-2-one] | 0.0013 µM | 0.00028 µM | 0.0019 µM | – | – | –
2 | Cc1cc(Oc2ccccc2F)ccc1-n1ncc(C(=O)c2cc3cc(F)c(N4C(=O)NC5(CCC5)C4=O)cc3[nH]2)c1N [Example 5-1-374, 7-[2-[5-amino-1-[4-(2-fluorophenoxy)-2-methylphenyl]pyrazole-4-carbonyl]-5-fluoro-1H-indol-6-yl]-5,7-diazaspiro[3.4]octane-6,8-dione] | 0.013 µM | 0.0029 µM | 0.036 µM | – | – | –
3 | Cc1cccc(S(=O)(=O)Nc2cc3[nH]c(C(=O)c4cnn(-c5ccc(Oc6ccccc6F)cc5C)c4N)cc3cc2C)n1 [Example 5-1-530, N-[2-[5-amino-1-[4-(2-fluorophenoxy)-2-methylphenyl]pyrazole-4-carbonyl]-5-methyl-1H-indol-6-yl]-6-melhylpyridine-2-sulfonamide] | – | – | – | 0.034 µM | 0.0026 µM | 0.2 µM
4 | Cc1cc(Oc2c(F)cccc2Cl)ncc1-n1ncc(C(=O)c2cc3cc(F)c(NS(=O)(=O)C4CC4)cc3[nH]2)c1N [Example 4-2-046, N-[2-[5-amino-1-[6-(2-chloro-6-fluorophenoxy)-4-methylpyridin-3-yl]pyrazole-4-carbonyl]-5-fluoro-1H-indol-6-yl]cyclopropanesulfonamide] | – | – | – | 0.048 µM | 0.012 µM | 0.23 µM
5 | Cc1cc(Oc2ccccc2F)ccc1-n1ncc(C(=O)c2cc3cc(F)c(N4C(=O)NC5(CC5)C4=O)cc3[nH]2)c1N [Example 5-1-375, 6-[2-[5-amino-1-[4-(2-fluorophenoxy)-2-methylphenyl]pyrazole-4-carbonyl]-5-fluoro-1H-indol-6-yl]-4,6-diazaspiro[2.4]heptane-5,7-dione] | 0.0071 µM | 0.002 µM | 0.024 µM | – | – | –
6 | Cc1cc(Oc2ccccc2F)ccc1-n1ncc(C(=O)c2cc3cc(N4CCOCC4)c(N4CCCC4=O)cc3[nH]2)c1N [Example 5-1-105, 1-[2-[5-amino-1-[4-(2-fluorophenoxy)-2-methylphenyl]pyrazole-4-carbonyl]-5-morpholin-4-yl-1H-indol-6-yl]pyrrolidin-2-one] | 0.0016 µM | 0.00077 µM | 0.0036 µM | – | – | –
7 | Cc1cc(Oc2c(F)cccc2F)ncc1-n1ncc(C(=O)c2cc3cc(OCC(F)F)c(C4CCN(S(=O)(=O)C5CC5)CC4)cc3[nH]2)c1N [Example 4-17-024, [5-amino-1-[6-(2,6-difluorophenoxy)-4-methylpyridin-3-yl]pyrazol-4-yl]-[6-(1-cyclopropylsulfonylpiperidin-4-yl)-5-(2,2-difluoroethoxy)-1H-indol-2-yl]methanone] | – | – | – | 0.025 µM | 0.011 µM | 0.04 µM
8 | Cc1cc2cc(C(=O)c3cnn(-c4cnc(Oc5c(F)cccc5F)cc4C)c3N)[nH]c2cc1N1CCC(N2CCOCC2)CC1 [Example 4-2-125, [5-amino-1-[6-(2,6-difluorophenoxy)-4-methylpyridin-3-yl]pyrazol-4-yl]-[5-methyl-6-(4-morpholin-4-ylpiperidin-1-yl)-1H-indol-2-yl]methanone] | – | – | – | 0.0026 µM | 0.0024 µM | 0.028 µM
9 | Cc1cc(Oc2c(F)cccc2F)ncc1-n1ncc(C(=O)c2cc3cc(OC(F)F)c(NS(=O)(=O)N4CCOCC4)cc3[nH]2)c1N [Example 4-22-003, N-[2-[5-amino-1-[6-(2,6-difluorophenoxy)-4-methylpyridin-3-yl]pyrazole-4-carbonyl]-5-(difluoromethoxy)-1H-indol-6-yl]morpholine-4-sulfonamide] | – | – | – | 0.062 µM | 0.0029 µM | 0.17 µM
10 | Cc1cc2cc(C(=O)c3cnn(-c4cnc(Oc5ccccc5F)cc4C)c3N)[nH]c2cc1NS(=O)(=O)c1cccc(C(F)(F)F)n1 [Example 5-1-486, N-[2-[5-amino-1-[6-(2-fluorophenoxy)-4-methylpyridin-3-yl]pyrazole-4-carbonyl]-5-methyl-1H-indol-6-yl]-6-(trifluoromethyl) pyridine-2-sulfonamide] | – | – | – | 0.16 µM | 0.0073 µM | 0.62 µM

The remaining lines, values ahead:

Row | IC50 (human Lck enzyme) | IC50 (human Yes1 enzyme) | IC50 (human Src enzyme) | IC50 (human Lck enzyme; [1]) | IC50 (human Yes1 enzyme; [1]) | IC50 (human Src enzyme; [1]) | Structure (SMILES)
11 | 0.0063 µM | 0.00035 µM | 0.095 µM | – | – | – | Cc1cc(-n2ncc(C(=O)c3cc4cc(OC5CCN(C(C)C)CC5)c(N5C(=O)NC(C)(C)C5=O)cc4[nH]3)c2N)ccc1Oc1ccccc1F [Example 5-1-180, 3-[2-[5-amino-1-[4-(2-fluorophenoxy)-3-methylphenyl]pyrazole-4-carbonyl]-5-(1-propan-2-ylpiperidin-4-yl)oxy-1H-indol-6-yl]-5,5-dimethylimidazolidine-2,4-dione]
12 | 0.0038 µM | 0.00056 µM | 0.013 µM | – | – | – | COc1cc2cc(C(=O)c3cnn(-c4c(C)cc(Oc5ccccc5F)cc4F)c3N)[nH]c2cc1NS(=O)(=O)CC(=O)N1CCCC1 [Example 5-1-130, N-[2-[5-amino-1-[2-fluoro-4-(2-fluorophenoxy)-6-methylphenyl]pyrazole-4-carbonyl]-5-methoxy-1H-indol-6-yl]-2-oxo-2-pyrrolidin-1-ylethanesulfonamide]
13 | – | – | – | 0.0042 µM | 0.00073 µM | 0.037 µM | Cc1cc(Oc2ccccc2F)ccc1-n1ncc(C(=O)c2cc3cc(F)c(N4C(=O)N[C@@H](C)C4=O)cc3[nH]2)c1N [Example 5-1-411, (5S)-3-[2-[5-amino-1-[4-(2-fluorophenoxy)-2-methylphenyl]pyrazole-4-carbonyl]-5-fluoro-1H-indol-6-yl]-5-methylimidazolidine-2,4-dione]
14 | – | – | – | 0.013 µM | 0.0072 µM | 0.053 µM | Cc1cc(Oc2ccccc2F)cc(F)c1-n1ncc(C(=O)c2cc3cc(OC(F)F)c(NC4CN(S(C)(=O)=O)C4)cc3[nH]2)c1N [Example 4-23-024, [5-amino-1-[2-fluoro-4-(2-fluorophenoxy)-6-methylphenyl]pyrazol-4-yl]-[5-(difluoromethoxy)-6-[(1-methylsulfonylazetidin-3-yl)amino]-1H-indol-2-yl]methanone]
15 | 0.048 µM | 0.0014 µM | 0.15 µM | – | – | – | Cc1cc(-n2ncc(C(=O)c3cc4cc(OCC(F)F)c(C5CCN(S(C)(=O)=O)CC5)cc4[nH]3)c2N)ccc1Oc1ccccc1F [Example 5-1-217, [5-amino-1-[4-(2-fluorophenoxy)-3-methylphenyl]pyrazol-4-yl]-[5-(2,2-difluoroethoxy)-6-(1-methylsulfonylpiperidin-4-yl)-1H-indol-2-yl]methanone]
16 | – | – | – | 0.012 µM | 0.0029 µM | 0.097 µM | Cc1cc2cc(C(=O)c3cnn(-c4ccc(Oc5ccccc5F)cc4C)c3N)[nH]c2cc1N1C(=O)N[C@@H](C(C)C)C1=O [Example 5-1-476, (5S)-3-[2-[5-amino-1-[4-(2-fluorophenoxy)-2-methylphenyl]pyrazole-4-carbonyl]-5-methyl-1H-indol-6-yl]-5-propan-2-ylimidazolidine-2,4-dione]
17 | – | – | – | 0.0067 µM | 0.00076 µM | 0.012 µM | Cc1cc(Oc2ccccc2F)ccc1-n1ncc(C(=O)c2cc3cc(OCC(F)F)c(N4C(=O)C(C)(C)NC4=S)cc3[nH]2)c1N [Example 4-23-037, 3-[2-[5-amino-1-[4-(2-fluorophenoxy)-2-methylphenyl]pyrazole-4-carbonyl]-5-(2,2-difluoroethoxy)-1H-indol-6-yl]-5,5-dimethyl-2-sulfanylideneimidazolidin-4-one]
18 | – | – | – | 0.078 µM | 0.0041 µM | 0.39 µM | Cc1cc2cc(C(=O)c3cnn(-c4ccc(Oc5ccccc5F)cc4C)c3N)[nH]c2cc1NS(=O)(=O)c1cccc(C#N)n1 [Example 5-1-535, N-[2-[5-amino-1-[4-(2-fluorophenoxy)-2-methylphenyl]pyrazole-4-carbonyl]-5-methyl-1H-indol-6-yl]-6-cyanopyridine-2-sulfonamide]
19 | – | – | – | 0.0039 µM | 0.00089 µM | 0.048 µM | Cc1cc(Oc2ccccc2Cl)cc(F)c1-n1ncc(C(=O)c2cc3cc(NS(C)(=O)=O)c(F)cc3[nH]2)c1N [Example 4-2-102, N-[2-[5-amino-1-[4-(2-chlorophenoxy)-2-fluoro-6-methylphenyl]pyrazole-4-carbonyl]-6-fluoro-1H-indol-5-yl]methanesulfonamide]
20 | – | – | – | 0.0021 µM | 0.00035 µM | 0.003 µM | Cc1cc(Oc2ccccc2F)ccc1-n1ncc(C(=O)c2cc3cc(OCCN4CCOCC4)c(N4CCCS4(=O)=O)cc3[nH]2)c1N [Example 4-25-012, [5-amino-1-[4-(2-fluorophenoxy)-2-methylphenyl]pyrazol-4-yl]-[6-(1,1-dioxo-1,2-thiazolidin-2-yl)-5-(2-morpholin-4-ylethoxy)-1H-indol-2-yl]methanone]
21 | – | – | – | 0.25 µM | 0.027 µM | 0.52 µM | Cc1cc(Oc2cccc(Cl)c2)cc(F)c1-n1ncc(C(=O)c2cc3cc(Cl)c(NS(C)(=O)=O)cc3[nH]2)c1N [Example 4-2-083, N-[2-[5-amino-1-[4-(3-chlorophenoxy)-2-fluoro-6-methylphenyl]pyrazole-4-carbonyl]-5-chloro-1H-indol-6-yl]methanesulfonamide]
